{"source": "patent US9045403B2", "about": "(Coyote Pharmaceuticals, Inc., priority 2012, dated 2015)", "key": {"HSP70 [1]": {"test_system": "HSP70", "test": "HSP70 expression in Neuro2A cells by western blot", "format": "cell-based, mouse", "conditions": "Neuro2A cells, western blot", "experimental": "Differentiation was induced and cells incubated with geranylgeranyl transferase I inhibitor, GGTI-298. Cells were harvested and lysates were prepared and analyzed by western blot for HSP70 and HSP90. Western signals in the absence of the compounds were normalized as 1.00."}, "[2]": {"test_system": "Murine neuro2A neuroblastoma cells", "test": "Neurite outgrowth of neuro2A cells inhibited with GGTI-298 (Example 30)", "format": "cell-based, mouse", "conditions": "for Relative %: relative to uninhibited count", "experimental": "Differentiation was induced and cells incubated with geranylgeranyl transferase I inhibitor, GGTI-298. After 24 h digital images were taken and neurite outgrowth was quantified. The comparisons of the neuroprotective effect of these three compounds are shown below.\nThe estimated mean log10 counts, from five replicate wells for each treatment group were calculated by PROC GLM in SAS assuming a pooled estimate of variation.\nThe estimated mean log10 counts from five replicate wells for each treatment group were calculated by PROC GLM in SAS assuming a pooled estimate of variation.\nDifferences in mean log(counts) between treatments for each concentration were calculated using PROC GLM in SAS. The p-value given is for the comparison of the estimated difference to zero, the expected difference value for no treatment effect. The anti-log of the differences represent the estimated ratio of counts (relative effect on inhibition) and are tabulated below along with the lower and upper 95% confidence intervals."}, "[3]": {"test_system": "Sprague Dawley rats, KA injected into the hippocampus", "test": "Time course of neuroprotection in the kainic acid model", "format": "in vivo, rat", "conditions": "for Difference of mean fraction damaged to pooled PBS / Mean fraction of hippocampus cells having KA-induced damage: 12 mg/kg oral; for Mean fraction of hippocampus cells having KA-induced damage: pooled PBS 0.187", "experimental": "CNS-102 was administered orally to Sprague Dawley rats at 12 mg/kg. After dosing, KA was stereotactically injected into the hippocampus at 24, 48, 72, 96 and 168 hours to induce neuron damage. After 24 h, hippocampus tissue was collected, stained, and imaged. The scans were analyzed by Image J to calculate the fraction of cells having KA-induced damage. Average fraction damaged in the hippocampus from ten animals for each treatment (PBS vs. 12 mg/kg CNS-102) by time (24, 48, 72, 96 and 168 hours) combination was estimated with PROC MIXED in SAS. Comparisons of the CNS-102 treatment groups to the pooled PBS treatment at the different times can be made, giving the results tabulated below."}, "HSP70 [4]": {"test_system": "HSP70", "test": "HSP70 induction in rat hippocampus with or without stereotactic kainic acid injection", "format": "in vivo", "experimental": "Stereotactic injections of Kainic acid into rat hippocampus tissues led to increased damages in neurons. […] Under this condition, neurons and HSP70 expression was stained by immunohistochemistry techniques. HSP70 expression was induced in a very specific area only that KA was injected. The induced area was not stained by HSP70 antibody when KA was not injected, but CNS-102 was dosed.\nHSP70 induction by dosing CNS-102 in the absence of the KA injection was limited in western blot experiments using hippocampus lysates. 120% or 130% of HSP70 expression could be seen by comparing those of vehicle dosing control experiments."}}, "note": "Values joined by “and” are separate entries in the source; they are usually repeats but may differ in a detail not shown here. Identical values can stand only once.", "data": [{"compound": "CC(=O)CC/C=C(\\C)CC/C=C(\\C)CC/C=C(\\C)CCC=C(C)C", "note": "[CNS-102]", "values": [{"measurement": "induction of HSP70 expression (in words)", "setting": "HSP70 [1]", "result": "induce expression of HSP70 at various concentrations"}, {"measurement": "Median Counts of cells with neurite outgrowth", "setting": "[2]; 10 nM, CNS-101 vs CNS-102 experiment (no inhibition 95.5, PBS 21.5)", "result": 33.8}, {"measurement": "Relative %", "setting": "[2]; 10 nM, CNS-101 vs CNS-102 experiment", "result": 35.4, "unit": "%"}, {"measurement": "Median Counts of cells with neurite outgrowth", "setting": "[2]; 100 nM, CNS-101 vs CNS-102 experiment (no inhibition 95.5, PBS 21.5)", "result": 43.4}, {"measurement": "Relative %", "setting": "[2]; 100 nM, CNS-101 vs CNS-102 experiment", "result": 45.4, "unit": "%"}, {"measurement": "Median Counts of cells with neurite outgrowth", "setting": "[2]; 100 nM, CNS-102 vs CNS-103 experiment (no inhibition 60.3, PBS 18.5)", "result": 33.5}, {"measurement": "Relative %", "setting": "[2]; 100 nM, CNS-102 vs CNS-103 experiment", "result": 55.6, "unit": "%"}, {"measurement": "Median Counts of cells with neurite outgrowth", "setting": "[2]; 1000 nM, CNS-101 vs CNS-102 experiment (no inhibition 95.5, PBS 21.5)", "result": 51.0}, {"measurement": "Relative %", "setting": "[2]; 1000 nM, CNS-101 vs CNS-102 experiment", "result": 53.4, "unit": "%"}, {"measurement": "Median Counts of cells with neurite outgrowth", "setting": "[2]; 1000 nM, CNS-102 vs CNS-103 experiment (no inhibition 60.3, PBS 18.5)", "result": 23.8}, {"measurement": "Relative %", "setting": "[2]; 1000 nM, CNS-102 vs CNS-103 experiment", "result": 39.5, "unit": "%"}, {"measurement": "Median Counts of cells with neurite outgrowth", "setting": "[2]; 10000 nM, CNS-101 vs CNS-102 experiment (no inhibition 95.5, PBS 21.5)", "result": 38.2}, {"measurement": "Relative %", "setting": "[2]; 10000 nM, CNS-101 vs CNS-102 experiment", "result": 40, "unit": "%"}, {"measurement": "maximum protection", "setting": "[2]; CNS-101 vs CNS-102 experiment, FIG. 4A", "result": "~40", "unit": "%"}, {"measurement": "maximum protection", "setting": "[2]; CNS-102 vs CNS-103 experiment, FIG. 4B", "result": "~36", "unit": "%"}, {"measurement": "Difference of mean fraction damaged to pooled PBS", "setting": "[3]; KA at 24 hours", "result": 0.005}, {"measurement": "Mean fraction of hippocampus cells having KA-induced damage", "setting": "[3]; KA at 24 hours", "result": 0.193}, {"measurement": "Difference of mean fraction damaged to pooled PBS", "setting": "[3]; KA at 48 hours", "result": "−0.064"}, {"measurement": "Mean fraction of hippocampus cells having KA-induced damage", "setting": "[3]; KA at 48 hours", "result": 0.123}, {"measurement": "Difference of mean fraction damaged to pooled PBS", "setting": "[3]; KA at 72 hours", "result": "−0.092"}, {"measurement": "Mean fraction of hippocampus cells having KA-induced damage", "setting": "[3]; KA at 72 hours", "result": 0.096}, {"measurement": "Difference of mean fraction damaged to pooled PBS", "setting": "[3]; KA at 96 hours", "result": "−0.056"}, {"measurement": "Mean fraction of hippocampus cells having KA-induced damage", "setting": "[3]; KA at 96 hours", "result": 0.131}, {"measurement": "Difference of mean fraction damaged to pooled PBS", "setting": "[3]; KA at 168 hours", "result": "−0.026"}, {"measurement": "Mean fraction of hippocampus cells having KA-induced damage", "setting": "[3]; KA at 168 hours", "result": 0.162}, {"measurement": "timepoint of maximal protection effect", "setting": "[3]; single oral dose of 12 mg/kg", "result": 72, "unit": "h"}, {"measurement": "HSP70 induction (in words)", "setting": "HSP70 [4]; KA stereotactically injected in hippocampus, localized in the injection site", "result": "a strong induction of HSP70 was seen very clearly"}, {"measurement": "HSP70 expression compared with vehicle dosing control", "setting": "HSP70 [4]; western blot of hippocampus lysates, absence of the KA injection", "result": "120% and 130%"}]}]}
